Measurements from ChEMBL document CHEMBL1955784, “Novel 5-substituted 1H-tetrazoles as cyclooxygenase-2 (COX-2) inhibitors” (Bioorg Med Chem Lett, 2012).

How the values were obtained:
[1] = target: T1, Prostaglandin G/H synthase 1 (Ovis aries, UniProt P05979); assay: Competitive inhibition of ovine COX1 by enzyme immunoassay
T1 sequence (P05979 whole entry): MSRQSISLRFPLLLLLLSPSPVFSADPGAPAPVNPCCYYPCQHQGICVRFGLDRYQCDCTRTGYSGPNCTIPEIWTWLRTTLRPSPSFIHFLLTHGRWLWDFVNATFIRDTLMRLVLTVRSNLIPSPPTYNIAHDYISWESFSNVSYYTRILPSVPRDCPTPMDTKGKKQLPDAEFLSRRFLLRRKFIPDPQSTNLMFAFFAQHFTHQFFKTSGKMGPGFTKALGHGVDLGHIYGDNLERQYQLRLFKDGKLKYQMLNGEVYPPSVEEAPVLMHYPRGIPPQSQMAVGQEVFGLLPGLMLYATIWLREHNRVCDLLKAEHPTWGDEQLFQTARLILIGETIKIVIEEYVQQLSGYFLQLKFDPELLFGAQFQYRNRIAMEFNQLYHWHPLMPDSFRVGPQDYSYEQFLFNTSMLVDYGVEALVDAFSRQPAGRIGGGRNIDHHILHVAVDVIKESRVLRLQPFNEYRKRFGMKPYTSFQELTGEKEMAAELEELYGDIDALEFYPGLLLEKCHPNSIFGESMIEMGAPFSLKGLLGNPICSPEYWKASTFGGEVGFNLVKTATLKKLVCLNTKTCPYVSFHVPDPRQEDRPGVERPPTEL

[2] = target: T2, Prostaglandin G/H synthase 2 (Homo sapiens, UniProt P35354); assay: Competitive inhibition of human recombinant COX2 by enzyme immunoassay
T2 sequence (P35354 whole entry): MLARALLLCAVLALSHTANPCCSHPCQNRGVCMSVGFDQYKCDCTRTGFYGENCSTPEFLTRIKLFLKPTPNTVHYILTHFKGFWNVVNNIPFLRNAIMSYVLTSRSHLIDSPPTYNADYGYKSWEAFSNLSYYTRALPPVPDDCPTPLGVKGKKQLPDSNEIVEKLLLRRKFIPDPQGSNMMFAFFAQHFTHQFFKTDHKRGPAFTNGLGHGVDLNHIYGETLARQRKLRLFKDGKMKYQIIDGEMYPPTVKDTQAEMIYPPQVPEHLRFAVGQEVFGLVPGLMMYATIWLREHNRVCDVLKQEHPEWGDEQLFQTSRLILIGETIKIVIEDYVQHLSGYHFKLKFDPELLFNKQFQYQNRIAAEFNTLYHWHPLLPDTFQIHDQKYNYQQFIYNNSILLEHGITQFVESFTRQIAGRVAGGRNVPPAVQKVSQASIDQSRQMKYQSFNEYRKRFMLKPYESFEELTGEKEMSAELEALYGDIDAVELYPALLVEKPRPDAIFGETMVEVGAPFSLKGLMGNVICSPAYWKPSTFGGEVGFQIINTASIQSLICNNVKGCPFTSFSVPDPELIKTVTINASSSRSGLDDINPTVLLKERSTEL

SMILES | IC50 [1] [µM] | IC50 [2] [µM]
CS(=O)(=O)c1ccc(-n2nnnc2-c2ccc(F)cc2)cc1 | > 100 | 15
CS(=O)(=O)c1ccc(-n2nnnc2-c2ccc([N+](=O)[O-])cc2)cc1 | > 100 | 69
Cc1ccc(-c2nnnn2-c2ccc(S(N)(=O)=O)cc2)cc1 | > 100 | > 100

Further lines, results first:

IC50 [1] [µM] | IC50 [2] [µM] | SMILES
> 100 | 32 | CS(=O)(=O)c1ccc(-n2nnnc2-c2ccc(Cl)cc2)cc1
> 100 | 62 | NS(=O)(=O)c1ccc(-n2nnnc2-c2ccc(Cl)cc2)cc1
